Experiments:
[1] = system: Mus musculus; assay: Ratio of treated to that of untreated tumor-bearing control animals at 3.75 mg/kg intraperitoneally in CD2F1 mice was determined; type: functional; details: route intraperitoneal
[2] = system: Mus musculus; assay: Ratio of treated to that of untreated tumor-bearing control animals at 7.5 mg/kg intraperitoneally in CD2F1 mice was determined; type: functional; details: route intraperitoneal
[3] = system: Mus musculus; assay: Toxicity day survivors was determined by the ratio of animals survived to that of test animals at 7.5 mg/kg intraperitoneally in CD2F1 mice; 6/6; type: organism-based; set-up: dose 7.5 mg/kg, route intraperitoneal; details: in vivo, ip
[4] = system: Mus musculus; assay: Toxicity day survivors was determined by the ratio of animals survived to that of test animals at 1.87 mg/kg intraperitoneally in CD2F1 mice; 6/6; type: organism-based; set-up: dose 1.87 mg/kg, route intraperitoneal; details: in vivo, ip
[5] = system: Mus musculus; assay: Net log cell kill was determined after injecting 3.75 mg/kg intraperitoneally in CD2F1 mice; type: functional; details: route intraperitoneal
[6] = system: Mus musculus; assay: Toxicity day survivors was determined by the ratio of animals survived to that of test animals at 15 mg/kg intraperitoneally in CD2F1 mice; 0/6; type: organism-based; set-up: dose 15 mg/kg, route intraperitoneal; details: in vivo, ip
[7] = system: Mus musculus; assay: Body weight change of test animals to that of control was determined after injection at 3.75 mg/kg intraperitoneally in CD2F1 mice; type: functional; details: route intraperitoneal
[8] = system: Mus musculus; assay: Body weight change of test animals to that of control was determined after injection at 7.5 mg/kg intraperitoneally in CD2F1 mice; type: functional; details: route intraperitoneal
[9] = system: Mus musculus; assay: Net log cell kill was determined after injecting 7.5 mg/kg intraperitoneally in CD2F1 mice; type: functional; details: route intraperitoneal
[10] = system: Mus musculus; assay: Toxicity day survivors was determined by the ratio of animals survived to that of test animals at 3.75 mg/kg intraperitoneally in CD2F1 mice; 6/6; type: organism-based; set-up: dose 3.75 mg/kg, route intraperitoneal; details: in vivo, ip
[11] = system: Mus musculus; assay: Ratio of treated to that of untreated tumor-bearing control animals at 1.87 mg/kg intraperitoneally in CD2F1 mice was determined; type: functional; details: route intraperitoneal
[12] = system: Mus musculus; assay: Net log cell kill was determined after injecting 1.87 mg/kg intraperitoneally in CD2F1 mice; type: functional; details: route intraperitoneal
[13] = system: Mus musculus; assay: Body weight change of test animals to that of control was determined after injection at 1.87 mg/kg intraperitoneally in CD2F1 mice; type: functional; details: route intraperitoneal
[14] = system: Mus musculus; assay: Body weight change of test animals to that of control was determined after injection at 30 mg/kg intraperitoneally in CD2F1 mice; type: functional; details: route intraperitoneal
[15] = system: Mus musculus; assay: Ratio of treated to that of untreated tumor-bearing control animals at 15 mg/kg intraperitoneally in CD2F1 mice was determined; type: functional; details: route intraperitoneal
[16] = system: Mus musculus; assay: Toxicity day survivors was determined by the ratio of animals survived to that of test animals at 7.5 mg/kg intraperitoneally in CD2F1 mice; 4/4; type: organism-based; set-up: dose 7.5 mg/kg, route intraperitoneal; details: in vivo, ip
[17] = system: Mus musculus; assay: Net log cell kill was determined after injecting 30 mg/kg intraperitoneally in CD2F1 mice; type: functional; details: route intraperitoneal
[18] = system: Mus musculus; assay: Toxicity day survivors was determined by the ratio of animals survived to that of test animals at 3.75 mg/kg intraperitoneally in CD2F1 mice; 5/5; type: organism-based; set-up: dose 3.75 mg/kg, route intraperitoneal; details: in vivo, ip
[19] = system: Mus musculus; assay: Toxicity day survivors was determined by the ratio of animals survived to that of test animals at 30 mg/kg intraperitoneally in CD2F1 mice; 6/6; type: organism-based; set-up: dose 30 mg/kg, route intraperitoneal; details: in vivo, ip
[20] = system: Mus musculus; assay: Toxicity day survivors was determined by the ratio of animals survived to that of test animals at 60 mg/kg intraperitoneally in CD2F1 mice; 0/6; type: organism-based; set-up: dose 60 mg/kg, route intraperitoneal; details: in vivo, ip
[21] = system: Mus musculus; assay: Body weight change of test animals to that of control was determined after injection at 15 mg/kg intraperitoneally in CD2F1 mice; type: functional; details: route intraperitoneal
[22] = system: Mus musculus; assay: Toxicity day survivors was determined by the ratio of animals survived to that of test animals at 1.87 mg/kg intraperitoneally in CD2F1 mice; 5/5; type: organism-based; set-up: dose 1.87 mg/kg, route intraperitoneal; details: in vivo, ip
[23] = system: Mus musculus; assay: Toxicity day survivors was determined by the ratio of animals survived to that of test animals at 15 mg/kg intraperitoneally in CD2F1 mice; 4/4; type: organism-based; set-up: dose 15 mg/kg, route intraperitoneal; details: in vivo, ip
[24] = system: Mus musculus; assay: Net log cell kill was determined after injecting 15 mg/kg intraperitoneally in CD2F1 mice; type: functional; details: route intraperitoneal
[25] = system: Mus musculus; assay: Ratio of treated to that of untreated tumor-bearing control animals at 30 mg/kg intraperitoneally in CD2F1 mice was determined; type: functional; details: route intraperitoneal

Row | Structure (SMILES) | T/C [1] [%] | T/C [2] [%] | KE [5] | T-C [7] [g] | T-C [8] [g] | KE [9] | T/C [11] [%] | KE [12] | T-C [13] [g] | other results
1 | Cc1c(COC(=O)NC(C)C)c(COC(=O)NC(C)C)c2n1-c1ccccc1CC2 | 155 | 94 | 1.47 | -3.6 | -2.8 | -1.64 | 134 | -0.14 | -1.5 | TDS [3]: 6; TDS [4]: 6; TDS [6]: 0; TDS [10]: 6
2 | COc1ccc2c(c1)CCc1c(COC(=O)NC(C)C)c(COC(=O)NC(C)C)c(C)n1-2 | 105 | 116 | -1.45 | -0.8 | -2.9 | -1.31 | 97 | -1.56 | -0.6 | T-C [14]: -4.2 g; T/C [15]: 150%; TDS [16]: 4; KE [17]: 1.51; TDS [18]: 5; TDS [19]: 6; TDS [20]: 0; T-C [21]: -6.5 g; TDS [22]: 5; TDS [23]: 4; KE [24]: 1.43; T/C [25]: 160%

— ChEMBL document CHEMBL1124001, “Synthesis and antileukemic activity of bis[[(carbamoyl)oxy]methyl]- substituted pyrrolo[2,1-a]isoquinolines, pyrrolo[1,2-a]quinolines, pyrrolo[2,1-a]isobenzazepines, and pyrrolo[1,2-a]benzazepines” (J Med Chem, 1988)
